pIC50: −log10 of the molar value. Like-named read-outs stand apart in the source and are kept apart here.
Assays:
[1] = tested on: human normal gastric epithelial cell GES-1; assay: MTT cell proliferation (cytotoxicity) assay on human normal gastric epithelial cells GES-1; format: cell-based; details: for pIC50: pure compounds, MTT, 48 h, n = 6, read-out: IC50 GES-1 (proliferation inhibition); for inhibition activity on GES-1 cell lines growth vs control, dose-dependent: Figure 2
Description: (§1) Human normal liver cell L-O2 was kindly donated by the School of Life Science, Nanjing Normal University (Nanjing, China), and Human normal gastric epithelial cell GES-1 was kindly donated by the Department of Gastroenterology, Nanjing Drum Tower Hospital (Nanjing, China). Human normal liver cell LO-2 was routinely cultured in DMEM medium, supplemented with 10% (v/v) fetal bovine serum (FBS), 100 U/mL of penicillin and 100 μg/mL of streptomycin in a humidified atmosphere with 5% CO2 at 37 °C in an incubator. The culture medium was changed every day. Cultures were dissociated with 0.25% trypsase in phosphate buffered (pH 7.2~7.4) saline (PBS). Human normal gastric epithelial cell GES-1 was routinely cultured in DMEM medium, supplemented with 15% (v/v) calf serum (CS), 100 U/mL of penicillin and 100 μg/mL of streptomycin in a humidified atmosphere with 5% CO2 at 37 °C in an incubator. The culture medium was changed every two days. Cultures were dissociated with 0.25% trypsase and 0.05% EDTA in PBS (pH 7.2~7.4).
(§2) Cytotoxicity activity was assayed by MTT method as described. Briefly, cells were seeded in 96-well plates (Costar, Corning Co., Ltd., Beijing, China) with 100 μL at a concentration of cell suspension of 1.0 × 10_4 cells/mL (L-O2 cell) and 1.0 × 10_5 cells/mL (GES-1 cell), and incubated for 24 h at 37 °C in a humidified atmosphere of 5% CO2 in an incubator.
(§3) Every sample was solubilized in dimethyl sulfoxide (DMSO) to a concentration of 10 mg/mL and stored at 4 °C, then diluted with complete medium to the desired series concentration before treating the cells. Each solution was added into 96-well plates with 100 μL per well, repeated 6 well. Cells of the control groups were treated with the same volume of medium. The treated cells with different groups were incubated for 48 h at 37 °C in a humidified atmosphere of 5% CO2 in an incubator. Then, the treated cells were added with 20 μL/well of MTT (5.0 mg/mL), and incubated for a further 4 h in an incubator. The growth medium was removed from all the wells, and 150 μL DMSO were added to each well. The plates were shaken gently for 10 min to blend the mixture. The absorbance value of each well was read at 490 nm using a microplate reader. All experiments were performed at least three times. The inhibition rate of cell proliferation was calculated according to the formula:
(§4) (1) cell inhibition (%)=1-sample solution absorbance value/control absorbance value)×100%
(§5) The results were expressed as an inhibition ratio and IC50 (concentration that inhibits 50% of cell growth). The data were analyzed with software SPSS 15.0 (SPSS Inc.: Chicago, IL, USA). The anti-proliferation activity is more significant when the IC50 is smaller.

[2] = tested on: human normal liver cells L-O2; assay: MTT cell proliferation (cytotoxicity) assay on human normal liver cells L-O2; format: cell-based; details: for pIC50: 48 h, pure compounds, MTT, n = 6, read-out: IC50 L-O2 (proliferation inhibition)
Description: as §1, §2, §3, §4, §5

[3] = concentration range 0.78–12.5 μg/mL
[4] = concentration range 0.78–12.5 μg/mL, Figure 3
[5] = concentration range 0.39–6.25 μg/mL

Structure (SMILES)	pIC50 ([1]; Homo sapiens, GES1, 48 h)	pIC50 ([2]; Homo sapiens)	inhibition activity on GES-1 cell lines growth vs control, dose-dependent [1, 3]	inhibition activity on L-O2 cell lines growth vs control, dose-dependent [2, 4]	other results
C=C1[C@H](OC(C)=O)[C@@H](OC(=O)c2ccccc2)[C@@H](OC(C)=O)C(C)(C)[C@H]2O[C@](O)([C@H](C)C2=O)[C@@]2(OC(C)=O)C[C@H](C)[C@H](OC(C)=O)[C@@H]2[C@H]1OC(C)=O [Compound 1, kansuinine A]	< 4.00	< 4.00			
C=C1C(OC(=O)c2ccccc2)C(O)C(=O)C(C)(C)C2OC2C(C)C(=O)C2(O)C(C1OC(=O)c1ccccc1)C(OC(C)=O)C(C)(O)C2OC(C)=O (stereo not drawn) [Compound 2, kansuinine B]	< 4.00	< 4.00			
CC(=O)OC1C(C)=CC23C(=O)C(C=C(C)C(OC(=O)c4ccccc4)C12O)C1C(CC3C)C1(C)C (stereo not drawn) [Compound 4, kansuiphorin C]	< 4.00	< 4.00			
CCCCCC=CC=CC(=O)OC1C(C)=CC23C(=O)C(C=C(COC(C)=O)C(O)C12O)C1C(CC3C)C1(C)C (stereo not drawn) [Compound 5, 3-O-(2′E,4′Z-Decadienoyl)-20-O-acetylingenol]	5.07	4.91	significant inhibition activity	significant inhibition activity	
CCCCCC=CC=CC(=O)OC1C(C)=CC23C(=O)C(C=C(COC(C)=O)C(O)C12O)C1C(CC3C)C1(C)C (stereo not drawn) [Compound 6, 3-O-(2′E,4′E-Decadienoyl)-20-O-acetylingenol]				significant inhibition activity	inhibition activity on GES-1 cell lines growth vs control, dose-dependent [1, 5]: significant inhibition activity; pIC50 [1]: 5.18; pIC50 [2]: 5.09
CCCCCC=CC=CC(=O)OC1C(C)=CC23C(=O)C(C=C(C)C(O)C12O)C1C(CC3C)C1(C)C (stereo not drawn) [Compound 7, 3-O-(2′E,4′Z-Decadienoyl)-20-deoxyingenol]	5.45	4.88	significant inhibition activity	significant inhibition activity	
CC1=CC2C(=O)C3(C=C(C)C(OC(=O)c4ccccc4)C3(O)C1O)C(C)CC1C2C1(C)C (stereo not drawn) [Compound 8, 3-O-Benzoyl-20-deoxyingenol]	4.63	4.15	significant inhibition activity		inhibition activity on L-O2 cell lines growth vs control ([2]; concentration range 3.125–50 μg/mL, Figure 3): significant inhibition activity
CC1=CC23C(=O)C(C=C(C)C(OC(=O)c4ccccc4)C2(O)C1O)C1C(CC3C)C1(C)C (stereo not drawn) [Compound 9, 5-O-Benzoyl-20-deoxyingenol]	4.66	4.46			inhibition activity on GES-1 cell lines growth vs control, dose-dependent ([1]; concentration range 1.56–25 μg/mL): significant inhibition activity; inhibition activity on L-O2 cell lines growth vs control, dose-dependent ([2]; concentration range 1.56–25 μg/mL, Figure 3): significant inhibition activity
CC(C)=CCC[C@H](C)[C@@H]1CC[C@]2(C)C3=C(CC[C@@]12C)[C@@]1(C)CC[C@H](O)C(C)(C)C1CC3=O (stereo partly drawn) [Compound 11, epi-kansenone]	5.09	4.75		significant inhibition activity	melting point: 116 to 118 °C; inhibition activity on GES-1 cell lines growth vs control, dose-dependent [1, 5]: significant inhibition activity
CC(C)=CCC[C@@H](C)[C@@H]1CC[C@]2(C)C3=C(CC[C@@]12C)[C@@]1(C)CC[C@H](O)C(C)(C)[C@@H]1CC3 [Compound 12, euphol]	< 4.00	< 4.00			
